# Source: patent publication US11013228B2, “Method of processing allograft skin for transplantation, and cryopreserved allograft skin produced thereby” (CG BIO CO., LTD., priority 2009, dated 2021)
# Values joined by “and” are separate entries in the source; they are usually repeats but may differ in a detail not shown here. Identical values can stand only once.
# System: pig skin
# Experiment: TUNEL assay, cell death rate according to sucrose concentration in the cryoprotectant
# Format: cell-based
# Conditions: for cell death rate, AVE: average of 6 samples
# Experimental: Because human skin tissue harvested from a donor (cadaver) is prohibited from being used in an experiment, pig skin—which is the closest to human skin—is used for preparing ten (10) of both cryopreserved skins and glycerol-preserved skins according to the following methods of Example and Comparative Example. To investigate the change of the cell death rate according to the difference of sucrose concentration, the cryopreserved allograft skin was prepared by the same method as in the Example except that the sucrose concentration in the cryoprotectant was 5, 10, 15, 20, 25, 30, 35 and 40 wt %, and it was then analyzed by TUNEL assay. TUNEL assay was carried out by using an In Situ Cell Death Detection Kit, Fluorescein (Roche, Germany) according to the manufacturer's instructions, and 4′,6-diamidino-2-phenylindole (DAPI) was used as a fluorescent marker. The results of cell death rate are shown in the following Table 1, and represented in FIG. 6 as a graph.
compound,measurement,setting,value
"OC[C@H]1O[C@@](CO)(O[C@H]2O[C@H](CO)[C@@H](O)[C@H](O)[C@H]2O)[C@@H](O)[C@@H]1O [Sucrose, sucrose]",cell death rate,"sucrose 25 to 40 wt % in the final concentration, Table 1 and FIG. 6",quite low
same,"cell death rate, AVE",sucrose conc. 5 wt % in cryoprotectant,48%
same,cell death rate,"sucrose conc. 5 wt % in cryoprotectant, individual samples n 1-6",65% and 45% and 36% and 64% and 39% and 41%
same,"cell death rate, AVE",sucrose conc. 10 wt % in cryoprotectant,47%
same,cell death rate,"sucrose conc. 10 wt % in cryoprotectant, individual samples n 1-6",26% and 49% and 55% and 57% and 56% and 41%
same,"cell death rate, AVE",sucrose conc. 15 wt % in cryoprotectant,41%
same,cell death rate,"sucrose conc. 15 wt % in cryoprotectant, individual samples n 1-6",25% and 31% and 22% and 47% and 57% and 66%
same,"cell death rate, AVE",sucrose conc. 20 wt % in cryoprotectant,35%
same,cell death rate,"sucrose conc. 20 wt % in cryoprotectant, individual samples n 1-6",43% and 35% and 21% and 22% and 23% and 68%
same,"cell death rate, AVE",sucrose conc. 25 wt % in cryoprotectant,28%
same,cell death rate,"sucrose conc. 25 wt % in cryoprotectant, individual samples n 1-6",19% and 23% and 28% and 64% and 12% and 20%
same,"cell death rate, AVE",sucrose conc. 30 wt % in cryoprotectant,20%
same,cell death rate,"sucrose conc. 30 wt % in cryoprotectant, individual samples n 1-6",20% (2×) and 23% and 39% and 11% and 5%
same,"cell death rate, AVE",sucrose conc. 35 wt % in cryoprotectant,23%
same,cell death rate,"sucrose conc. 35 wt % in cryoprotectant, individual samples n 1-6",30% and 25% and 10% and 23% and 28% and 21%
same,"cell death rate, AVE",sucrose conc. 40 wt % in cryoprotectant,28%
same,cell death rate,"sucrose conc. 40 wt % in cryoprotectant, individual samples n 1-6",13% and 36% and 33% and 41% and 26% and 20%
